Measured values published in patent US20260325508A1, “COMBINATION OF PAC-1 AND CAR T-CELL TREATMENTS” (THE BOARD OF TRUSTEES OF THE UNIVERSITY OF ILLINOIS, priority 2023, published 2026).

Test system: ID8Cosmc-KO
Assay: Survival of ID8Cosmc-KO-bearing mice, PAC-1 and 237 CAR-T combinations
Format: in vivo, mouse
Settings: single agent, PAC-1 100 mg/kg i.p. from day 40, three weeks 5 days ON, 2 days OFF; untreated 71 days; p<0.0001
Experimental: FIG. 14A-B. PAC-1 enhanced efficacy of 237 CAR-T in late-stage ovarian cancer model. Survival curves of mice with established ID8Cosmc-KO tumors treated with a combination of PAC-1 and 237 CAR-T in comparison with their single-agent controls. (A) Mice with detectable tumors at day 40 post-tumor inoculation were administered with either PAC-1 (100 mg/kg) or vehicle intraperitoneally for three weeks at a “five days ON, 2 days OFF” treatment schedule. At day 60 post-tumor inoculation, mice were given either 237 CAR-T or mock T cells (5 million cells, >40% transduction efficiency) via i.p. injection. Cyclophosphamide (100 mg/kg, i.p.) were administered 24 hours prior to adoptive T cell transfer to deplete pre-existing lymphocytes. (B) Data were plotted with GraphPad Prism v10 using cumulative data across five independent experiments, with the indicated total n for each treatment arm. Median survival times are indicated; P-values were calculated using the Log-rank (Mantel-Cox) test.
FIG. 15A-B. PAC-1 at day 50 (or day 60) and 237 CAR-T at day 60 combination treatment. […] Median survival times are indicated; P-values were calculated using the Log-rank (Mantel-Cox) test. […]
FIG. 16A-B. 237 CAR-T at day 60 and PAC-1 at day 77 combination treatment. […] Median survival times are indicated; P-values were calculated using the Log-rank (Mantel-Cox) test. […]

Compound `C=CCc1cccc(/C=N/NC(=O)CN2CCN(Cc3ccccc3)CC2)c1O` [PAC-1] has a median survival of 90 days.
